{"source": "patent US20180256673A1", "about": "“METHODS FOR TREATING FUNGAL INFECTIONS” (priority 2015, published 2018)", "key": {"[1]": {"system": "Candida tropicalis", "assay": "Broth microdilution of invasive fungal isolates (CLSI M27-A3/M38-A2)", "assay_type": "cell-based"}, "[2]": {"system": "Aspergillus fumigatus", "assay": "Broth microdilution of invasive fungal isolates (CLSI M27-A3/M38-A2), MEC", "assay_type": "cell-based", "conditions": "56 isolates"}, "[3]": {"system": "C. albicans vaginal isolates", "assay": "Susceptibility testing of VVC clinical isolates at pH 7 and 4 (CLSI M27-A3)", "assay_type": "cell-based, Candida albicans", "conditions": "Candida albicans"}, "[4]": {"system": "C. glabrata ATCC 90030, ATCC 2001", "assay": "Broth microdilution MIC (CLSI), Examples 3 and 4", "conditions": "Nakaseomyces glabratus", "protocol": "Antifungal susceptibility testing. Candida strains were cultured aerobically at 35° C. on SDA plates or in RPMI 1640 broth (pH 7.0). […] MIC assays were performed in triplicate."}, "[5]": {"system": "C. parapsilosis CP02", "assay_type": "cell-based, Candida parapsilosis", "experimental": "Spontaneous mutant selection. […] Three individual colonies from each strain were used to start cultures in RPMI. […] One milliliter aliquots were spread onto SDA plates containing drug with sterile glass beads. Starting viable count was enumerated by triplicate plating of serial dilutions of the starting inoculum. […] Glycerol stocks of putative mutant colonies were stored at −80° C. […] Spontaneous mutation frequencies were calculated by dividing the number of resistant colonies on a given plate by the starting inoculum plated. A subset of mutants (weighted heavily towards those selected with CMP1) were then evaluated by MIC and sequencing of FKS gene hot spot regions."}, "[6]": {"system": "Candida albicans", "assay": "Broth microdilution of invasive fungal isolates (CLSI M27-A3/M38-A2)", "assay_type": "cell-based", "conditions": "251 isolates"}}, "note": "Several values for one entry are separate records, joined by “and”; a condition that tells them apart may be missing. Equal entries are not always repeated. Where two headings read alike, the source gives them in different places. Starred links: 1 amine or outer side, 2 acyl side, 3 side chain; linkers in the order of their positions; H or OH if unused. Positions of bridges follow the written chain, without caps; N, C: chain ends. Non-standard residues stand in square brackets, D forms with d. Residues, ends and D or L forms follow the SMILES beside them. *: point of attachment. pTerphenylCO(4''-OnC5H11) = CCCCCOc1ccc(-c2ccc(-c3ccc(C(=O)*)cc3)cc2)cc1; Orn(4R-OH,5R-OH) = O=C([C@H](C[C@@H](O)[C@@H](O)N[*:3])N[*:1])[*:2]; hTyr(3S-OH,4S-OH) = N[C@H](C(=O)O)[C@H](O)[C@@H](O)c1ccc(O)cc1; Pro(3S-OH,4S-Me) = C[C@H]1CN[C@H](C(=O)O)[C@H]1O; Hyp = O=C(O)[C@@H]1C[C@@H](O)CN1"}
{"smiles": "CCCCCOc1ccc(-c2ccc(-c3ccc(C(=O)N[C@H]4C[C@@H](O)[C@@H](O)NC(=O)[C@@H]5[C@@H](O)[C@@H](C)CN5C(=O)[C@H]([C@@H](C)O)NC(=O)[C@H]([C@H](O)[C@@H](O)c5ccc(O)cc5)NC(=O)[C@@H]5C[C@@H](O)CN5C(=O)[C@H]([C@@H](C)O)NC4=O)cc3)cc2)cc1", "note": "[ANID, anidulafungin] ({pTerphenylCO(4''-OnC5H11)}-[Orn(4R-OH,5R-OH)]T[Hyp][hTyr(3S-OH,4S-OH)]T[Pro(3S-OH,4S-Me)]; lactam 1-C)", "values": [{"measurement": "Cumulative % of isolates inhibited at MIC 0.015 μg/mL", "setting": "[1]; 51 isolates", "value": "(62.7) %"}, {"measurement": "Cumulative % of isolates inhibited at MIC 0.03 μg/mL", "setting": "[1]; 51 isolates", "value": "(98.0) %"}, {"measurement": "Cumulative % of isolates inhibited at MIC 0.06 μg/mL", "setting": "[1]; 51 isolates", "value": "(100.0) %"}, {"measurement": "Cumulative % of isolates inhibited at MIC ≤0.008 μg/mL", "setting": "[1]; 51 isolates", "value": "(9.8) %"}, {"measurement": "Number of isolates inhibited at MIC 0.015 μg/mL", "setting": "[1]; 51 isolates", "value": 27}, {"measurement": "Number of isolates inhibited at MIC 0.03 μg/mL", "setting": "[1]; 51 isolates", "value": 18}, {"measurement": "Number of isolates inhibited at MIC 0.06 μg/mL", "setting": "[1]; 51 isolates", "value": 1}, {"measurement": "Number of isolates inhibited at MIC ≤0.008 μg/mL", "setting": "[1]; 51 isolates", "value": 5}, {"measurement": "MIC50", "setting": "[1]; Candida tropicalis", "value": 0.015, "unit": "µg/mL"}, {"measurement": "MIC90", "setting": "[1]; Candida tropicalis", "value": 0.03, "unit": "µg/mL"}, {"measurement": "Cumulative % of isolates inhibited at MEC 0.015 μg/mL", "setting": "[2]", "value": "(91.1) %"}, {"measurement": "Cumulative % of isolates inhibited at MEC 0.03 μg/mL", "setting": "[2]", "value": "(100.0) %"}, {"measurement": "Cumulative % of isolates inhibited at MEC ≤0.008 μg/mL", "setting": "[2]", "value": "(53.6) %"}, {"measurement": "MEC50", "setting": "[2]", "value": 0.008, "unit": "µg/mL"}, {"measurement": "Number of isolates inhibited at MEC 0.015 μg/mL", "setting": "[2]", "value": 21}, {"measurement": "Number of isolates inhibited at MEC 0.03 μg/mL", "setting": "[2]", "value": 5}, {"measurement": "Number of isolates inhibited at MEC ≤0.008 μg/mL", "setting": "[2]", "value": 30}, {"measurement": "MIC90", "setting": "[3]; 24 h, pH 4", "value": 0.03, "unit": "µg/mL"}, {"measurement": "MIC90", "setting": "[3]; 24 h, pH 7", "value": 0.008, "unit": "µg/mL"}, {"measurement": "MIC90", "setting": "[3]; 48 h, pH 4", "value": 0.06, "unit": "µg/mL"}, {"measurement": "MIC", "setting": "[3]; 48 h, pH 4, fluconazole-resistant isolate 1, pH 4", "value": 0.03, "unit": "µg/mL"}, {"measurement": "MIC", "setting": "[3]; 48 h, pH 4, fluconazole-resistant isolate 2, pH 4", "value": 0.03, "unit": "µg/mL"}, {"measurement": "MIC", "setting": "[3]; 48 h, pH 4, fluconazole-resistant isolate 3, pH 4", "value": 0.03, "unit": "µg/mL"}, {"measurement": "MIC", "setting": "[3]; 48 h, pH 4, fluconazole-resistant isolate 4, pH 4", "value": 0.06, "unit": "µg/mL"}, {"measurement": "MIC", "setting": "[3]; 48 h, pH 4, fluconazole-resistant isolate 5, pH 4", "value": 0.125, "unit": "µg/mL"}, {"measurement": "MIC", "setting": "[3]; 48 h, pH 4, fluconazole-resistant isolate 6, pH 4", "value": 0.06, "unit": "µg/mL"}, {"measurement": "MIC", "setting": "[3]; 48 h, pH 4, fluconazole-resistant isolate 7, pH 4", "value": 0.06, "unit": "µg/mL"}, {"measurement": "MIC", "setting": "[3]; 48 h, pH 4, fluconazole-resistant isolate 8, pH 4", "value": 0.06, "unit": "µg/mL"}, {"measurement": "MIC", "setting": "[3]; 48 h, pH 4, fluconazole-resistant isolate 9, pH 4", "value": 0.25, "unit": "µg/mL"}, {"measurement": "MIC", "setting": "[3]; 48 h, pH 4, fluconazole-resistant isolate 10, pH 4", "value": 0.06, "unit": "µg/mL"}, {"measurement": "MIC90", "setting": "[3]; 48 h, pH 7", "value": 0.03, "unit": "µg/mL"}, {"measurement": "MIC", "setting": "[3]; 48 h, pH 7, fluconazole-resistant isolate 1, pH 7", "value": 0.008, "unit": "µg/mL"}, {"measurement": "MIC", "setting": "[3]; 48 h, pH 7, fluconazole-resistant isolate 2, pH 7", "value": 0.03, "unit": "µg/mL"}, {"measurement": "MIC", "setting": "[3]; 48 h, pH 7, fluconazole-resistant isolate 3, pH 7", "value": 0.008, "unit": "µg/mL"}, {"measurement": "MIC", "setting": "[3]; 48 h, pH 7, fluconazole-resistant isolate 4, pH 7", "value": 0.008, "unit": "µg/mL"}, {"measurement": "MIC", "setting": "[3]; 48 h, pH 7, fluconazole-resistant isolate 5, pH 7", "value": 0.016, "unit": "µg/mL"}, {"measurement": "MIC", "setting": "[3]; 48 h, pH 7, fluconazole-resistant isolate 6, pH 7", "value": 0.008, "unit": "µg/mL"}, {"measurement": "MIC", "setting": "[3]; 48 h, pH 7, fluconazole-resistant isolate 7, pH 7", "value": 0.008, "unit": "µg/mL"}, {"measurement": "MIC", "setting": "[3]; 48 h, pH 7, fluconazole-resistant isolate 8, pH 7", "value": 0.008, "unit": "µg/mL"}, {"measurement": "MIC", "setting": "[3]; 48 h, pH 7, fluconazole-resistant isolate 9, pH 7", "value": 0.125, "unit": "µg/mL"}, {"measurement": "MIC", "setting": "[3]; 48 h, pH 7, fluconazole-resistant isolate 10, pH 7", "value": 0.008, "unit": "µg/mL"}, {"measurement": "MIC", "setting": "[4]; ATCC2001|ATCC90030, 24 h, read-out: Broth MIC, ATCC 2001 wild-type, 24 h, ~50% inhibition", "value": 0.06, "unit": "µg/mL"}, {"measurement": "MIC", "setting": "[4]; ATCC2001|ATCC90030, 24 h, read-out: Broth MIC, ATCC 90030 wild-type, 24 h, ~50% inhibition", "value": 0.06, "unit": "µg/mL"}, {"measurement": "MIC", "setting": "[4]; ATCC2001|ATCC90030, ATCC 2001 spontaneous mutant, Fks2 HS1 D666N", "value": 0.5, "unit": "µg/mL"}, {"measurement": "MIC", "setting": "[4]; ATCC2001|ATCC90030, ATCC 2001 spontaneous mutant, Fks2 HS1 D666Y", "value": 0.5, "unit": "µg/mL"}, {"measurement": "MIC", "setting": "[4]; ATCC2001|ATCC90030, ATCC 2001 spontaneous mutant, Fks2 HS1 R665G", "value": 0.5, "unit": "µg/mL"}, {"measurement": "MIC", "setting": "[4]; ATCC2001|ATCC90030, ATCC 2001 spontaneous mutant, Fks2 HS1 S663F", "value": 1, "unit": "µg/mL"}, {"measurement": "MIC", "setting": "[4]; ATCC2001|ATCC90030, ATCC 2001 spontaneous mutant, Fks2 HS1 ΔF659", "value": 4, "unit": "µg/mL"}, {"measurement": "MIC", "setting": "[4]; ATCC2001|ATCC90030, ATCC 2001 spontaneous mutant, Fks2 HS2 R1378S", "value": 0.25, "unit": "µg/mL"}, {"measurement": "MIC", "setting": "[4]; ATCC2001|ATCC90030, ATCC 90030 spontaneous mutant, Fks2 HS1 D666H", "value": 1, "unit": "µg/mL"}, {"measurement": "MIC", "setting": "[4]; ATCC2001|ATCC90030, ATCC 90030 spontaneous mutant, Fks2 HS1 ΔF659", "value": 2, "unit": "µg/mL"}, {"measurement": "Median mutation frequency", "setting": "[5]", "value": "<1.04E−08"}, {"measurement": "Plate concentration", "setting": "[5]; SDA, minimum concentration to cleanly inhibit growth", "value": 16, "unit": "µg/mL"}, {"measurement": "Freq. (replicate mutation frequency)", "setting": "[5]; replicate plates 1-3", "value": "<1.04E−08 (2×) and <9.62E−09"}, {"measurement": "Cumulative % of isolates inhibited at MIC 0.015 μg/mL", "setting": "[6]", "value": "(67.7) %"}, {"measurement": "Cumulative % of isolates inhibited at MIC 0.03 μg/mL", "setting": "[6]", "value": "(89.2) %"}, {"measurement": "Cumulative % of isolates inhibited at MIC 0.06 μg/mL", "setting": "[6]", "value": "(98.0) %"}, {"measurement": "Cumulative % of isolates inhibited at MIC 0.12 μg/mL", "setting": "[6]", "value": "(100.0) %"}]}
